We go through 24 compounds from US10174016B2 (BAYER AKTIENGESELLSCHAFT, priority 2014, dated 2019).

One test concerns the target human P2X3 receptor (Homo sapiens (Human), UniProt P56373). Kind of test: Intracellular calcium measurement (FLIPR, Fluo-4) of antagonist activity at human P2X3 receptors. The class given is cell-based. The conditions noted are these: read-out: hP2X3 IC50. The method, boiled down: (§1)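 Cells expressing human P2X3 or P2X2/3, loaded with Fluo-4, preincubated 30 min at 37° C. with compound (1% DMSO final), then challenged with α,β-Me-ATP at its EC80. Peak FLIPR fluorescence over 90 sec gave % response; IC50, maximal inhibition and Hill slope from triplicates.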

The target of another test is human P2X2/3 receptor (Homo sapiens (Human), UniProt P56373+Q9UBL9). Kind of test: Intracellular calcium measurement (FLIPR, Fluo-4) of antagonist activity at human P2X2/3 receptors. The class given is cell-based. The conditions noted are these: human P2X2/3, FLIPR calcium assay, agonist α,β-Me-ATP; read-out: hP2X2/3 IC50. The method, boiled down: as §1
A general note: Calcium assays in cells follow changes in intracellular calcium, usually with a dye or a luminescent sensor.

Setting [1] is: human P2X3, FLIPR calcium assay, agonist α,β-Me-ATP.

pIC50: −log10 of the molar value. Read-outs that look alike come from different tables or passages of the source. Some results are limits rather than exact numbers.

Chain of human P2X2/3 receptor (P56373 whole entry): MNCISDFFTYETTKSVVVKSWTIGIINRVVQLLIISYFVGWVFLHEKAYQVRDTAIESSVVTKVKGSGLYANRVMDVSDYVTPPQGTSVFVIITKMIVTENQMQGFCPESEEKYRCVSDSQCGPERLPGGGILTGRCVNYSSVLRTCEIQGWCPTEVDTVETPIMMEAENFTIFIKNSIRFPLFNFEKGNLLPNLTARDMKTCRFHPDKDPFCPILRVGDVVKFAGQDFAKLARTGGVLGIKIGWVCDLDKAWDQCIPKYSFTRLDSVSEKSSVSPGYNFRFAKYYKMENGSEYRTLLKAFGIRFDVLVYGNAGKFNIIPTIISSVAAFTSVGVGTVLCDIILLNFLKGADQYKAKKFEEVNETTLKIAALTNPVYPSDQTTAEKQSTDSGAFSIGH
Chain of human P2X2/3 receptor (Q9UBL9 whole entry): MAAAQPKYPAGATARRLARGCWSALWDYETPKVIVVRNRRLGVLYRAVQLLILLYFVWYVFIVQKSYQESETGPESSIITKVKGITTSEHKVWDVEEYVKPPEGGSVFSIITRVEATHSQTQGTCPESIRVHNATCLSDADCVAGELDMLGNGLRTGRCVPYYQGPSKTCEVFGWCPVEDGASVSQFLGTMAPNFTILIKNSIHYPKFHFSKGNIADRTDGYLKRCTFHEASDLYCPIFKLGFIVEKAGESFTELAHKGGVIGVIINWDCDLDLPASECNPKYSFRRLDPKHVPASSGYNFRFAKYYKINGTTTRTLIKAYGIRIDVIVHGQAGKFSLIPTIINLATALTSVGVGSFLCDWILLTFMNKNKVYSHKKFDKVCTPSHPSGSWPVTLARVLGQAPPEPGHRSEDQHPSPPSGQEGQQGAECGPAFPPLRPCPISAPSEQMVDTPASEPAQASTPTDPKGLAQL
Chain of human P2X3 receptor (P56373 whole entry): as the sequence (P56373 whole entry) above

As for `Cc1cnc(-c2cc(O[C@H]3CCNC3)cc(C(=O)N[C@H](C)c3cnc(C(F)(F)F)nc3)c2)s1` [Example 203, 3-(5-methyl-1,3-thiazol-2-yl)-5-[(3S)-pyrrolidin-3-yloxy]-N-{(1R)-1-[2-(trifluoromethyl)pyrimidin-5-yl]ethyl} benzamide], the pIC50 at human P2X3 receptor (setting [1]) is 7.44; on human P2X2/3 receptor, 5.81.
The corresponding values for `Cc1cnc(-c2cc(OC3CCNCC3F)cc(C(=O)N[C@H](C)c3cnc(C(F)(F)F)nc3)c2)s1` (stereo partly drawn) [Example 204, 3-{[3-fluoropiperidin-4-yl]oxy}-5-(5-methyl-1,3-thiazol-2-yl)-N-{(1R)-1-[2-(trifluoromethyl)pyrimidin-5-yl]ethyl} benzamide] are 8.15 and 7.09.
For `Cc1cnc(-c2cc(OC3CC4CC3CN4C)cc(C(=O)N[C@H](C)c3cnc(C(F)(F)F)nc3)c2)s1` (stereo partly drawn) [Example 209, 3-{[2-methyl-2-azabicyclo[2.2.1]hept-5-yl]oxy}-5-(5-methyl-1,3-thiazol-2-yl)-N-{(1R)-1-[2-(trifluoromethyl)pyrimidin-5-yl]ethyl}benzamide], in that order: 7.52 and 5.83.
The corresponding values for `Cc1cnc(-c2cc(OC3CCN(C)CC3)cc(C(=O)N[C@H](C)c3ccc(C(F)(F)F)nn3)c2)s1` [Example 210, 3-[(1-methylpiperidin-4-yl)oxy]-5-(5-methyl-1,3-thiazol-2-yl)-N-{(1R)-1-[6-(trifluoromethyl)pyridazin-3-yl]ethyl} benzamide] are 7.92 and 5.99.
As for `Cc1cnc(-c2cc(OC3CN(C)C3)cc(C(=O)N[C@H](C)c3ccc(C(F)(F)F)nn3)c2)s1` [Example 211, 3-[(1-methylazetidin-3-yl)oxy]-5-(5-methyl-1,3-thiazol-2-yl)-N-{(1R)-1-[6-(trifluoromethyl)pyridazin-3-yl]ethyl} benzamide], the figures for the pIC50 at human P2X3 receptor (setting [1]) and on human P2X2/3 receptor were 6.40 and at most 5.00, respectively.
For `Cc1cnc(-c2cc(OC3CCN(C)CC3F)cc(C(=O)N[C@H](C)c3cnc(C(F)(F)F)nc3)c2)s1` (stereo partly drawn) [Example 212, 3-[(3-fluoro-1-methylpiperidin-4-yl)oxy]-5-(5-methyl-1,3-thiazol-2-yl)-N-{(1R)-1-[2-(trifluoromethyl)pyrimidin-5-yl]ethyl} benzamide], in that order: 8.40 and 7.34.
The corresponding values for `Cc1cnc(-c2cc(OCC3(N(C)C)CC3)cc(C(=O)N[C@H](C)c3cnc(C(F)(F)F)nc3)c2)s1` [Example 213, 3-{[1-(dimethylamino)cyclopropyl]methoxy}-5-(5-methyl-1,3-thiazol-2-yl)-N-{(1R)-1-[2-(trifluoromethyl)pyrimidin-5-yl]ethyl} benzamide] are 8.30 and 7.09.
The corresponding values for `Cc1cnc(-c2cc(OC3CC4(C3)CN(C)C4)cc(C(=O)N[C@H](C)c3cnc(C(F)(F)F)nc3)c2)s1` [Example 214, 3-[(2-methyl-2-azaspiro [3.3]hept-6-yl)oxy]-5-(5-methyl-1,3-thiazol-2-yl)-N-{(1R)-1-[2-(trifluoromethyl)pyrimidin-5-yl]ethyl} benzamide] are 7.33 and 5.47.
In the case of `Cc1cnc(-c2cc(OC3CCN(C)CC3)cc(C(=O)N[C@H](C)c3cnc(C(F)F)nc3)c2)s1` [Example 215], the figures for the pIC50 on human P2X3 receptor and at human P2X2/3 receptor were 7.80 and 6.00, respectively.
`Cc1cnc(-c2cc(O[C@H]3C[C@H]4CC[C@@H](C3)N4C)cc(C(=O)N[C@H](C)c3cnc(C(F)(F)F)nc3)c2)s1` [Example 216, 3-{[(3-endo)-8-methyl-8-azabicyclo[3.2.1]oct-3-yl]oxy}-5-(5-methyl-1,3-thiazol-2-yl)-N-{(1R)-1-[2-(trifluoromethyl)pyrimidin-5-yl]ethyl} benzamide]: the pIC50 at human P2X3 receptor (setting [1]) was 7.85; at human P2X2/3 receptor it was 6.03.
The corresponding values for `Cc1cnc(-c2cc(O[C@@H]3C[C@H]4CC[C@@H](C3)N4C)cc(C(=O)N[C@H](C)c3cnc(C(F)(F)F)nc3)c2)s1` [Example 217, 3-{[(3-exo)-8-methyl-8-azabicyclo[3.2.1]oct-3-yl]oxy}-5-(5-methyl-1,3-thiazol-2-yl)-N-{(1R)-1-[2-(trifluoromethyl)pyrimidin-5-yl]ethyl} benzamide] are 7.60 and 5.76.
The corresponding values for `Cc1cnc(-c2cc(O[C@@H]3CC[C@H]4[C@H]3OCCN4C)cc(C(=O)N[C@H](C)c3cnc(C(F)(F)F)nc3)c2)s1` [Example 218, 3-{[(4aS,7R, 7aR)-4-methyloctahydro-cyclopenta [b][1,4]oxazin-7-yl]oxy}-5-(5-methyl-1,3-thiazol-2-yl)-N-{(1R)-1-[2-(trifluoromethyl)pyrimidin-5-yl]ethyl} benzamide] are 8.15 and 6.55.
`Cc1cnc(-c2cc(O[C@H]3CC[C@H]4[C@H]3OCCN4C)cc(C(=O)N[C@H](C)c3cnc(C(F)(F)F)nc3)c2)s1` [Example 219, 3-{[(4aS,7S, 7aR)-4-methylocta-hydro-cyclopenta[b] [1,4]oxazin-7-yl]oxy}-5-(5-methyl-1,3-thiazol-2-yl)-N-{(1R)-1-[2-(trifluoromethyl)pyrimidin-5-yl]ethyl} benzamide]: the pIC50 at human P2X3 receptor (setting [1]) is 8.70; on human P2X2/3 receptor, 6.70.
For `Cc1cnc(-c2cc(OC3CCN(C(C)C)CC3)cc(C(=O)N[C@H](C)c3ccc(C(F)(F)F)nn3)c2)s1` [Example 224, 3-(5-Methyl-1,3-thiazol-2-yl)-5-{[1-(propan-2-yl)piperidin-4-yl]oxy}-N-{(1R)-1-[6-(trifluoromethyl)pyridazin-3-yl]ethyl}benzamide], in that order: 8.05 and 6.24.
For the compound `Cc1cnc(-c2cc(O[C@H]3CCN(C(C)C)C3)cc(C(=O)N[C@H](C)c3cnc(C(F)(F)F)nc3)c2)s1` [Example 225, 3-(5-methyl-1,3-thiazol-2-yl)-5-{[(3S)-1-(propan-2-yl)pyrrolidin-3-yl]oxy}-N-{(1R)-1-[2-(trifluoromethyl)pyrimidin-5-yl]ethyl}benzamide], the pIC50 on human P2X3 receptor (setting [1]) is 7.80; on human P2X2/3 receptor, 5.94.
On to `COC(=O)N1CCC(Oc2cc(C(=O)N[C@H](C)c3cnc(C(F)(F)F)nc3)cc(-c3ncc(C)s3)c2)CC1` [Example 226, Methyl 4-[3-(5-methyl-1,3-thiazol-2-yl)-5-({(1R)-1-[2-(trifluoromethyl)pyrimidin-5-yl]ethyl}carbamoyl)phenoxy]piperidine-1-carboxylate], for which the pIC50 at human P2X3 receptor (setting [1]) is 8.22; at human P2X2/3 receptor, 7.23.
The corresponding values for `CCOC(=O)N1CCC(Oc2cc(C(=O)N[C@H](C)c3cnc(C(F)(F)F)nc3)cc(-c3ncc(C)s3)c2)CC1` [Example 227, Ethyl 4-[3-(5-methyl-1,3-thiazol-2-yl)-5-({(1R)-1-[2-(trifluoromethyl)pyrimidin-5-yl]ethyl}carbamoyl)phenoxy]piperidine-1-carboxylate] are 7.89 and 6.79.
For `CCOC(=O)N1CC[C@H](Oc2cc(C(=O)N[C@H](C)c3cnc(C(F)(F)F)nc3)cc(-c3ncc(C)s3)c2)C1` [Example 228, Ethyl (3S)-3-[3-(5-methyl-1,3-thiazol-2-yl)-5-({(1R)-1-[2-(trifluoromethyl)pyrimidin-5-yl]ethyl}carbamoyl)phenoxy]pyrrolidine-1-carboxylate], in that order: 8.30 and 7.27.
For the compound `Cc1cnc(-c2cc(OC3CN(C(C)C)C3)cc(C(=O)N[C@H](C)c3cnc(C(F)(F)F)nc3)c2)s1` [Example 229, 3-(5-Methyl-1,3-thiazol-2-yl)-5-{[1-(propan-2-yl)azetidin-3-yl]oxy}-N-{(1R)-1-[2-(trifluoromethyl)pyrimidin-5-yl]ethyl}benzamide], the pIC50 at human P2X3 receptor (setting [1]) is 7.36; on human P2X2/3 receptor, 5.64.
For `Cc1cnc(-c2cc(OC3CCS(=O)(=O)CC3)cc(C(=O)N[C@H](C)c3cnc(C(F)(F)F)nc3)c2)s1` [Example 232, 3-[(1,1-dioxidotetrahydro-2H-thiopyran-4-yl)oxy]-5-(5-methyl-1,3-thiazol-2-yl)-N-{(1R)-1-[2-(trifluoromethyl)pyrimidin-5-yl]ethyl}benzamide], in that order: 7.89 and 6.12.
Regarding `Cc1cnc(-c2cc(OC3CCS(=O)(=O)CC3)cc(C(=O)N[C@H](C)c3ccc(C(F)(F)F)nc3)c2)s1` [Example 233, 3-[(1,1-dioxidotetrahydro-2H-thiopyran-4-yl)oxy]-5-(5-methyl-1,3-thiazol-2-yl)-N-{(1R)-1-[6-(trifluoromethyl)pyridin-3-yl]ethyl}benzamide], the pIC50 at human P2X3 receptor (setting [1]) was 7.80; at human P2X2/3 receptor it was 6.12.
The corresponding values for `CCc1cnc(-c2cc(OC3CCOCC3)cc(C(=O)NCc3ccc(C)nn3)c2)s1` [Example 235, 3-(5-ethyl-1,3-thiazol-2-yl)-N-[(6-methylpyridazin-3-yl)methyl]-5-(tetrahydro-2H-pyran-4-yloxy)benzamide] are 7.74 and 7.15.
Consider `Cc1ccc(CNC(=O)c2cc(OC3CCOCC3)cc(-c3ncc(C4CCC4)s3)c2)nn1` [Example 237, 3-(5-cyclobutyl-1,3-thiazol-2-yl)-N-[(6-methylpyridazin-3-yl)methyl]-5-(tetrahydro-2H-pyran-4-yloxy)benzamide], for which the pIC50 on human P2X3 receptor (setting [1]) is 6.75; on human P2X2/3 receptor it was 6.27.
Take `C[C@@H](NC(=O)c1cc(OC2CCOCC2)cc(-c2ncc(C3CCC3)s2)c1)c1cnc(C(F)(F)F)nc1` [Example 238, 3-(5-cyclobutyl-1,3-thiazol-2-yl)-5-(tetrahydro-2H-pyran-4-yloxy)-N-{(1R)-1-[2-(trifluoromethyl)pyrimidin-5-yl]ethyl}benzamide]: the pIC50 at human P2X3 receptor (setting [1]) was 7.42; on human P2X2/3 receptor it was 6.40.
